Assay results reported in the OPERA property sets (Mansouri et al. 2018).
Converted amounts (≈) assume the structure as drawn.

settings: not given

In order of falling logP:
1. CC1CC(C)(C)CC(OOC(C)(C)C)(OOC(C)(C)C)C1 (centres undefined)  6.53
2. Cc1cc(Cc2cc(C)cc(C(C)(C)C)c2O)c(O)c(C(C)(C)C)c1  6.25
3. CC(C)(C)c1cc(C(C)(C)C)c(O)c(C(C)(C)C)c1  6.06
4. CCCCC(CC)CN1C(=O)C2C(C1=O)C1(C(C)C)C=CC2(C)CC1 (centres undefined)  5.96
5. Cc1ccc(C)c(Cc2ccccc2)c1  5.65
6. CC(C)(OOC(C)(C)c1ccccc1)c1ccccc1  5.5
7. ClC(c1ccccc1)(c1ccccc1)c1ccccc1  5.25
8. CC(C)(C)c1ccc(O)c(C(C)(C)C)c1  5.19
9. Cc1ccc(C(C)(C)C)cc1  5.17
10. O=C1c2ccccc2-c2cccc3cccc1c23  4.81
11. CCOP(=S)(Oc1ccc([N+](=O)[O-])cc1)c1ccccc1 (centres undefined)  4.78
12. Oc1cc(Cl)ccc1Oc1ccc(Cl)cc1Cl  4.76
13. CCOC(=O)C(O)(c1ccc(Cl)cc1)c1ccc(Cl)cc1  4.74
14. ClC1C(Br)C(Br)C(Br)C(Br)C1Br (centres undefined)  4.72
15. C=C(C)CC(C)(C)C  4.55
16. O=C1c2ccccc2C(=O)c2c1ccc1ccccc21  4.4
17. C=C(C)C(=O)OCC(CC)(COC(=O)C(=C)C)COC(=O)C(=C)C  4.39
18. ClCCOC(c1ccccc1)c1ccccc1  4.38
19. CC(C)CCOCCC(C)C  4.25
20. Oc1c(Cl)cc(Cl)c2ccccc12  4.23
21. C=Cc1ccc(CC)cc1  4.19
22. C=CC(=C)CCC=C(C)C  4.17
23. C=Cc1cccc(CC)c1  4.11
24. BrCC(CBr)(CBr)CBr  3.99
25. C=CC1CC=CCC1 (centres undefined)  3.93
26. Nc1ccc(Cc2ccc(N)c(Cl)c2)cc1Cl  3.91
27. CC=C1CC2C=CC1C2 (centres undefined)  3.82
28. COc1ccc(C(=O)c2ccccc2)c(O)c1  3.79
29. CCCCOCCOP(=O)(OCCOCCCC)OCCOCCCC  3.75
30. Nc1cccc2c1C(=O)c1ccccc1C2=O  3.74
31. S=C(NC1CCCCC1)NC1CCCCC1  3.69
32. O=P(OC(CCl)CCl)(OC(CCl)CCl)OC(CCl)CCl  3.65
33. OC(c1ccccc1)c1ccc(Cl)cc1 (centres undefined)  3.61
34. CC(C)=CC=C(C)C  3.5
35. Oc1ccc(Cc2ccccc2)cc1  3.47
36. CCNc1cccc2ccccc12  3.45
37. COc1cccc2ccccc12  3.45
38. Nc1ccc2c(c1)C(=O)c1ccccc1C2=O  3.31
39. N#CSCSc1nc2ccccc2s1  3.3
40. ClC(Cl)C(Cl)C(Cl)Cl  3.23
41. O=[N+]([O-])c1ccc(Cl)cc1C(F)(F)F  3.2
42. O=C1CCCCC1C1=CCCCC1 (centres undefined)  3.17
43. ClCC(Br)CBr (centres undefined)  2.96
44. O=C1CCCCCCCCCCCN1  2.92
45. Cc1ccc(Cl)c(O)c1  2.9
46. S=C(SSSSC(=S)N1CCCCC1)N1CCCCC1  2.8
47. OCc1ccc(Cl)c(Cl)c1  2.74
48. ClCC(Cl)(Cl)CCl  2.72
49. COC(=O)c1ccccc1C(=O)c1ccccc1  2.7
50. CC(CCl)OP(=O)(OC(C)CCl)OC(C)CCl (centres undefined)  2.59
51. CCc1ccccc1[N+](=O)[O-]  2.58
52. Cc1ccc([N+](=O)[O-])cc1O  2.47
53. C=CC(=C)C  2.42
54. BrC(Br)Br  2.4
55. ClCC(Cl)CCl  2.27
56. CNc1cccc(C)c1  2.19
57. Cc1ccc(O)cc1[N+](=O)[O-]  2.18
58. CCN(CC)c1ccc2c(-c3ccccc3C(=O)O)c3ccc(N(CC)CC)cc3[o+]c2c1.[Cl-]  1.95
59. COc1ccc(N)c([N+](=O)[O-])c1  1.94
60. COc1c(N)cccc1[N+](=O)[O-]  1.78
61. C=CCOP(=O)(OCC=C)OCC=C  1.76
62. CC(=O)CC(=O)Nc1ccc(-c2ccc(NC(=O)CC(C)=O)c(C)c2)cc1C  1.75
63. C=Cc1ccccn1  1.54
64. CC(C)(C)C(=O)O  1.48
65. O=P(OCCCl)(OCCCl)OCCCl  1.44
66. CC(C)C(O)C(C)(C)CO (centres undefined)  1.24
67. CC(C)CN1CCOCC1  1.17
68. OCC(O)c1ccccc1Cl (centres undefined)  1.17
69. CC(C)[N+](=O)[O-]  0.93
70. C=CC(OC(C)=O)OC(C)=O  0.78
71. CCC(C)=NO  0.63
72. COc1ccccc1OCC(O)COC(N)=O (centres undefined)  0.61
73. Cc1cc(=O)nc(C(C)C)[nH]1  0.55
74. N#CCCNCCC#N  -1.34

In order of rising solubility:
1. CC1CC(C)(C)CC(OOC(C)(C)C)(OOC(C)(C)C)C1 (centres undefined)  1.98 µM (≈ 0.6 µg/mL)
2. CC(C)COc1ccc2ccccc2c1  6.14 µM (≈ 1.23 µg/mL)
3. CCCCOC(=O)CC(CC(=O)OCCCC)(OC(C)=O)C(=O)OCCCC  12.4 µM (≈ 5 µg/mL)
4. CCCCC(CC)COC(=O)/C=C/C(=O)OCC(CC)CCCC (centres undefined)  294 µM (≈ 100 µg/mL)
5. CCCCCC1C(=O)CCC1CC(=O)OC (centres undefined)  1240 µM (≈ 280 µg/mL)
6. COC(=O)c1cccc(C(=O)OC)c1  1490 µM (≈ 290 µg/mL)
7. CC(C)(O)CCCC1=CCC(C=O)CC1 (centres undefined)  29000 µM (≈ 6100 µg/mL)

same assay, conditions: 20 °C

`COC(C)CCOC(C)=O` (centres undefined) gave a solubility of 31500 µM (≈ 4600 µg/mL).

same assay, conditions: 25 °C

In order of falling solubility:
1. C=C(C)C(=O)OCCO  768000 µM (≈ 100000 µg/mL)
2. COc1ccc(O)cc1  322000 µM (≈ 40000 µg/mL)
3. CCCCOCCOCCOC(C)=O  220000 µM (≈ 44900 µg/mL)
4. O=CC(Cl)(Cl)Cl  204000 µM (≈ 30000 µg/mL)
5. CC(C)CN1CCOCC1  195000 µM (≈ 28000 µg/mL)
6. Clc1ccccn1  176000 µM (≈ 20000 µg/mL)
7. OCC(CO)(CBr)CBr  145000 µM (≈ 38000 µg/mL)
8. Oc1cccc(Br)c1  133000 µM (≈ 23000 µg/mL)
9. CC(=O)N(C)c1ccccc1  112000 µM (≈ 16700 µg/mL)
10. CN(C)Cc1ccccc1  88800 µM (≈ 12000 µg/mL)
11. C=CC(OC(C)=O)OC(C)=O  56900 µM (≈ 9000 µg/mL)
12. CCCCNCCCC  36400 µM (≈ 4700 µg/mL)
13. Oc1cccc(Cl)c1Cl  22100 µM (≈ 3600 µg/mL)
14. CC(C)CNCC(C)C  17000 µM (≈ 2200 µg/mL)
15. C=C(C)CCl  15500 µM (≈ 1400 µg/mL)
16. Oc1cc(Cl)ccc1Cl  12300 µM (≈ 2000 µg/mL)
17. Oc1c(Cl)cccc1Cl  11700 µM (≈ 1900 µg/mL)
18. OCc1ccc(Cl)c(Cl)c1  9040 µM (≈ 1600 µg/mL)
19. O=C(O)C1C(C(=O)O)C2(Cl)C(Cl)=C(Cl)C1(Cl)C2(Cl)Cl (centres undefined)  9000 µM (≈ 3500 µg/mL)
20. CNc1cccc(C)c1  8910 µM (≈ 1080 µg/mL)
21. Cc1cc(C)c(O)c(C)c1  8810 µM (≈ 1200 µg/mL)
22. OCc1c(Cl)cccc1Cl  7910 µM (≈ 1400 µg/mL)
23. Cc1ccc([N+](=O)[O-])cc1O  6530 µM (≈ 1000 µg/mL)
24. CC(=O)Nc1ccccc1O  5820 µM (≈ 880 µg/mL)
25. Nc1cccc2cccc(N)c12  5370 µM (≈ 850 µg/mL)
26. O=C(O)c1ccccc1-c1ccccc1C(=O)O  5200 µM (≈ 1260 µg/mL)
27. N=C(Nc1ccccc1)Nc1ccccc1  4730 µM (≈ 1000 µg/mL)
28. CCCC=C(C=O)CC  4640 µM (≈ 586 µg/mL)
29. ClC1CCCCC1  4220 µM (≈ 500 µg/mL)
30. Cc1ccc(O)c([N+](=O)[O-])c1  4130 µM (≈ 633 µg/mL)
31. Cc1ccsc1  4070 µM (≈ 400 µg/mL)
32. Nc1ccc(Cl)cc1Cl  3830 µM (≈ 620 µg/mL)
33. CC(CCl)OP(=O)(OC(C)CCl)OC(C)CCl (centres undefined)  3660 µM (≈ 1200 µg/mL)
34. COc1cccc([N+](=O)[O-])c1  3270 µM (≈ 500 µg/mL)
35. N#Cc1ccccc1C#N  3080 µM (≈ 395 µg/mL)
36. C=CCc1ccc(OC)c(OC)c1  2810 µM (≈ 500 µg/mL)
37. ClCC(Cl)(Cl)CCl  2640 µM (≈ 480 µg/mL)
38. Nc1cccc2c(N)cccc12  2400 µM (≈ 380 µg/mL)
39. CNC(=O)Oc1ccccc1C(C)C  2070 µM (≈ 400 µg/mL)
40. ClC(Cl)C(Cl)C(Cl)Cl  1900 µM (≈ 410 µg/mL)
41. CCc1ccccc1[N+](=O)[O-]  1590 µM (≈ 240 µg/mL)
42. CC(C)=CCC/C(C)=C/CO  1490 µM (≈ 230 µg/mL)
43. O=C1CCCCCCCCCCCN1  1470 µM (≈ 290 µg/mL)
44. N#CCc1ccccc1  854 µM (≈ 100 µg/mL)
45. COc1ccc(N)c([N+](=O)[O-])c1  714 µM (≈ 120 µg/mL)
46. CCNc1cccc2ccccc12  642 µM (≈ 110 µg/mL)
47. CCCCCCCCC#N  503 µM (≈ 70 µg/mL)
48. O=[N+]([O-])c1ccc(Cl)cc1C(F)(F)F  443 µM (≈ 100 µg/mL)
49. Oc1ccc(Cc2ccccc2)cc1  397 µM (≈ 73.2 µg/mL)
50. COC(=O)c1ccccc1C(=O)c1ccccc1  333 µM (≈ 80 µg/mL)
51. OC(c1ccccc1)c1ccc(Cl)cc1 (centres undefined)  325 µM (≈ 71 µg/mL)
52. CCCCCC(=O)CCCCC  294 µM (≈ 50 µg/mL)
53. CC(C)=CC=C(C)C  290 µM (≈ 32 µg/mL)
54. c1ccc(Nc2cccc3ccccc23)cc1  274 µM (≈ 60 µg/mL)
55. O=C(O)c1ccc2ccccc2c1  273 µM (≈ 47 µg/mL)
56. Nc1c(Cl)cc(Cl)cc1Cl  204 µM (≈ 40 µg/mL)
57. CCc1cccc(CC)c1  179 µM (≈ 24 µg/mL)
58. CC(C)(C)c1ccc(O)c(C(C)(C)C)c1  170 µM (≈ 35 µg/mL)
59. CC(C)(C)c1cc(C(C)(C)C)c(O)c(C(C)(C)C)c1  133 µM (≈ 35 µg/mL)
60. Oc1c(Cl)cc(Cl)c(Cl)c1Cl  99.2 µM (≈ 23 µg/mL)
61. O=[N+]([O-])c1cc(Cl)cc(Cl)c1O  81.7 µM (≈ 17 µg/mL)
62. CC=C1CC2C=CC1C2 (centres undefined)  74 µM (≈ 8.9 µg/mL)
63. COc1cccc2ccccc12  63.2 µM (≈ 10 µg/mL)
64. C=CC(=C)CCC=C(C)C  41.1 µM (≈ 5.6 µg/mL)
65. O=C(OOC(=O)c1ccccc1)c1ccccc1  37.6 µM (≈ 9.1 µg/mL)
66. C=C1C2CCC(C2)C1(C)C (centres undefined)  33.8 µM (≈ 4.6 µg/mL)
67. c1ccc2sc(SSc3nc4ccccc4s3)nc2c1  30.1 µM (≈ 10 µg/mL)
68. O=[N+]([O-])c1c(Cl)cc(Cl)cc1Cl  27.6 µM (≈ 6.25 µg/mL)
69. CCC(C)c1cccc(C(C)CC)c1O (centres undefined)  8.72 µM (≈ 1.8 µg/mL)
70. CC(C)(OOC(C)(C)c1ccccc1)c1ccccc1  1.7 µM (≈ 0.46 µg/mL)
71. CCCCCCCCN(CCCCCCCC)CCCCCCCC  0.141 µM (≈ 0.05 µg/mL)
72. Cc1cc(Cc2cc(C)cc(C(C)(C)C)c2O)c(O)c(C(C)(C)C)c1  0.0587 µM (≈ 0.02 µg/mL)
